{"source": "patent US10632165B2", "about": "“Beneficial effect of Bidens pilosa on fat decrease and muscle increase” (Academia Sinica, priority 2016, dated 2020)", "key": {"3T3-L1 pre-adipocytes": {"test_system": "3T3-L1 pre-adipocytes", "assay": "Differentiation of 3T3-L1 pre-adipocytes, Oil Red O staining and lipid quantification", "format": "cell-based, mouse", "conditions": "3T3-L1, inducer (Dex, IBMX and insulin) plus test substance", "method": "(§1) The MTT assay of 3T3-L1 adipocytes grown in the medium containing vehicle or cytopiloyne at the indicated concentration for 24 hr is shown (A). 3T3-L1 pre-adipocytes were initiated for differentiation with DMSO (vehicle) and a mixture of Dex, IBMX and insulin for 2 days (B). The differentiating cells were then incubated with vehicle (inducer), rosiglitazone (RSG) or different doses of cytopiloyne until complete differentiation occurred. Lipid droplets from all the cells were visualized by Oil-Red-O staining and examined by light microscopy (left panel). Scale bars=10 μm. Oil Red O inside the cells was extracted and quantified at 520 nm (right panel). Expression of PPAR-γ and C/EBPα in 3T3-L1 cells treated with inducer in the presence of rosiglitazone (RSG) or cytopiloyne was analyzed by Western blot (C). The relative expression level (REL) of aP2 and adiponectin in 3T3-L1 cells was measured using real-time PCR (D). Effect of cytopiloyne on differentiation of human SGBS cells. The cells were incubated with DMEM/F12 medium (vehicle) or differentiation medium for 3 days (E). […]\n(§2) The differentiated adipocytes were washed with phosphate-buffered saline (PBS) and fixed with 4% formaldehyde for 15 min. […] For lipid quantification, isopropanol was used to extract the intracellular oil red O, followed by measurement at 520 nm using a microplate reader."}, "adiponectin": {"test_system": "adiponectin", "assay": "Adiponectin expression in 3T3-L1 cells (real-time PCR)", "format": "cell-based, mouse", "method": "as §1, with “(E). The cells were then incubated with vehicle (inducer) and cytopiloyne (25 μM) until a complete differentiation. The cells were stained with Oil Red O and photographed. Scale bar=20 μm.” for “(E).”"}, "human SGBS cells": {"test_system": "human SGBS cells", "assay": "Differentiation of human SGBS cells, Oil Red O staining", "format": "cell-based", "conditions": "25 μM", "method": "as §1, §2"}, "C/EBPα": {"test_system": "C/EBPα", "assay": "C/EBPα expression in 3T3-L1 cells (Western blot)", "format": "cell-based, mouse", "conditions": "inducer plus test substance", "method": "as §1, with “(E). The cells were then incubated with vehicle (inducer) and cytopiloyne (25 μM) until a complete differentiation.” for “(E).”\nWestern Blot. […] After developing with ECL substrate (GE Healthcare, UK), the membranes were detected using FLUORCHEM™ HD2 system (Bio-Techne, Minneapolis, Minn., USA)."}, "aP2": {"test_system": "aP2", "assay": "aP2 expression in 3T3-L1 cells (real-time PCR)", "format": "cell-based, mouse", "method": "as §1, with “(E). The cells were then incubated with vehicle (inducer) and cytopiloyne (25 μM) until a complete differentiation. The cells were stained with Oil Red O and photographed. Scale bar=20 μm.” for “(E).”"}, "3T3-L1 adipocytes": {"test_system": "3T3-L1 adipocytes", "assay": "MTT assay of cell viability of adipocytes", "format": "cell-based, mouse", "conditions": "24 hr", "method": "as §1, with “(E). The cells were then incubated with vehicle (inducer) and cytopiloyne (25 μM) until a complete differentiation.” for “(E).”\nMTT assay was used to determine cell viability of adipocytes. […] The plate was measured at 570 nm (signal) and 650 nm (reference) using a microplate reader (UVM340, Biochrom, UK)."}, "PPARγ": {"test_system": "PPARγ", "assay": "PPARγ expression in 3T3-L1 cells (Western blot)", "format": "cell-based, mouse", "conditions": "inducer plus test substance", "quoted_text": "3T3-L1 pre-adipocytes were initiated for differentiation with DMSO (vehicle) and a mixture of Dex, IBMX and insulin for 2 days (B). The differentiating cells were then incubated with vehicle (inducer), rosiglitazone (RSG) or different doses of cytopiloyne until complete differentiation occurred. […] Expression of PPAR-γ and C/EBPα in 3T3-L1 cells treated with inducer in the presence of rosiglitazone (RSG) or cytopiloyne was analyzed by Western blot (C).\n3T3-L1 cells were maintained in DMEM medium containing 10% FBS, 4 mM glutamine, 4.5 g/L glucose, 1 mM sodium pyruvate, and 1.5 g/L sodium bicarbonate. The differentiation of 3T3-L1 cells into adipocytes was initiated by the addition of 10 μM Dex, 0.5 mM IBMX and 10 μg/mL insulin to the confluent cells for 2 days. The cells were then differentiated in medium containing 10 μg/mL insulin together with DMSO, rosiglitazone and cytopiloyne for an additional 8 to 10 days. The medium was changed every 2 days until the differentiation was complete."}}}
{"smiles": "CC#CC#CC#CC#CCCC(CO)O[C@@H]1O[C@H](CO)[C@@H](O)[C@H](O)[C@H]1O", "note": "(stereo partly drawn) [cytopiloyne, 2-β-D-glucopyranosyloxy-1-hydroxytrideca-5,7,9,11-tetrayne]", "values": [{"measurement": "production of lipid droplets in adipocytes", "setting": "3T3-L1 pre-adipocytes", "value": "dose-dependently inhibited this production"}, {"measurement": "expression level of adiponectin up-regulated by the inducer", "setting": "adiponectin", "value": "abolished this up-regulation"}, {"measurement": "production of lipid droplets", "setting": "human SGBS cells", "value": "inhibitory effect of cytopiloyne on the production of lipid droplets was confirmed"}, {"measurement": "C/EBPα expression up-regulated by the inducer", "setting": "C/EBPα", "value": "abolished the up-regulation"}, {"measurement": "expression level of aP2 up-regulated by the inducer", "setting": "aP2", "value": "abolished this up-regulation"}, {"measurement": "cytotoxicity (MTT)", "setting": "3T3-L1 adipocytes; 3T3-L1, 25 μM or less", "value": "did not show cytotoxicity"}, {"measurement": "cytotoxicity (MTT)", "setting": "3T3-L1 adipocytes; 3T3-L1, 50 μM", "value": "slight cytotoxicity"}, {"measurement": "PPARγ expression up-regulated by the inducer", "setting": "PPARγ", "value": "abolished the up-regulation"}]}
